# Data from patent publication US5773459A, “Urea- and thiourea-type compounds” (Sugen, Inc., priority 1995, dated 1998).
# Where two headings read alike, the source gives them in different places.
# Tested on: HUV-EC-C cells (human umbilical vein endothelial cells)
# Assay: HUV-EC-C Flk-1 assay (3H-thymidine incorporation)
# Format: cell-based
# Conditions: Endothelial cell
# Procedure: The HUV-EC-C Flk-1 assay can be performed as follows:
# 1. Wash and trypsinize HUV-EC-C cells (human umbilical vein endothelial cells, American Type Culture Collection; catalogue no. 1730-CRL). Wash with Dulbecco's phosphate-buffered saline (D-PBS; obtained from Gibco BRL; catalogue no. 14190-029) 2 times at about 1 ml/10 cm^2 of tissue culture flask. Trypsinize with 0.05% trypsin-EDTA in non-enzymatic cell dissociation solution (Sigma Chemical Company; catalogue no. C-1544). The 0.05% trypsin was made by diluting 0.25% trypsin/l mM EDTA (Gibco; catalogue no. 25200-049) in the cell dissociation solution. Trypsinize with about 1 ml/25-30 cm^2 of tissue culture flask for about 5 minutes at 37° C. After cells have detached from the flask, add an equal volume of D-PBS and transfer to a 50 ml sterile centrifuge tube (Fisher Scientific; catalogue no. 05-539-6).
# 2. Wash the cells with about 35 ml D-PBS in the 50 ml sterile centrifuge tube by adding the D-PBS, centrifuge for 10 minutes at approximately 200×g, aspirate the supernatant, and resuspend with 35 ml D-PBS. Repeat the wash two more times, resuspend the cells in about 1 ml assay medium/15 cm^2 of tissue culture flask. Assay medium consists of F12K medium (Gibco BRL; catalogue no. 21127-014)+0.5% heat-inactivated fetal bovine serum. […]
compound,measurement,setting,value
"CC(C)S(=O)(=O)c1csc(NC(=O)Nc2ccc(C(C)(C)C)cc2)c1Cl [Example Z1, N-[3-Chloro-4-(isopropylsulfonyl)thien-2-yl]-N'-(4-t-butylphenyl)urea]",IC50,"VEGF stimulated, read-out: GROWTH DATA: HUV-EC-C/VEGF",2.9 µM
same,IC50,"aFGF stimulated, read-out: GROWTH DATA: HUV-EC-C/aFGF",30 µM
